In patent US8420630B2 (Boehringer Ingelheim Pharma GmbH & Co. KG, priority 2001, dated 2013) one finds IC50 data, which are given here for 33 compounds.

Where a name gives a salt, the structure may show the parent alone.

T1 sequence (P06493 whole entry): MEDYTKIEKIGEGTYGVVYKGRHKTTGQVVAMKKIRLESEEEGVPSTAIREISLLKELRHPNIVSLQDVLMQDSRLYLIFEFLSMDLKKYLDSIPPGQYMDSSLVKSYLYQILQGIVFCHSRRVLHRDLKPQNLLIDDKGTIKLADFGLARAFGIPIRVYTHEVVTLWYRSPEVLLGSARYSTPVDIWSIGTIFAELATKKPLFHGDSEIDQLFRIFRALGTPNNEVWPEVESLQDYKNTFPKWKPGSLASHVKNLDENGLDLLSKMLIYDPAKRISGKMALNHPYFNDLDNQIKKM
T1 sequence (P14635 whole entry partner): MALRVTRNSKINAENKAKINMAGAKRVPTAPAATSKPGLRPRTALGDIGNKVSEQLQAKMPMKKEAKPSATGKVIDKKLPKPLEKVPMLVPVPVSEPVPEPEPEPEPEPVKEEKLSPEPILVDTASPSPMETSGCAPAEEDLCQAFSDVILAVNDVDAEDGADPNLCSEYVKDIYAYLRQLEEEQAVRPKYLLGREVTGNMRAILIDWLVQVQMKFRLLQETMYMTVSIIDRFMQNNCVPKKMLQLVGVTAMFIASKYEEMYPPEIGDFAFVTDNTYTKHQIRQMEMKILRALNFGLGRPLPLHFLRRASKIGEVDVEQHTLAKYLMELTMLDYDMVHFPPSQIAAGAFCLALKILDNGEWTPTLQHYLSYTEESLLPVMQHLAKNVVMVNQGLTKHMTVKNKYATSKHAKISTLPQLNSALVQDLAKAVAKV

The experiment concerns the target T1, CDK1/cyclinB1 (Homo sapiens, UniProt P06493).
T1 construct: made in house; host or cells: High Five insect cells (Trichoplusia ni), baculovirus coinfection
The experiment is described as follows: Cyclin B1-CDK1 kinase inhibition test. The format is biochemical. The settings on record: CDK1 tests (Example 13); recombinant cyclin B1/CDK1, substrate histone H1; read-out: CDK1/cyclinB1 IC50 value. The procedure: CDK4) were cloned by standard methods using RT-PCR, and cloned into a transfer vector (cyclin in pAcG2T made by Pharmingen, CDKs in p2Bac made by Invitrogen) for the baculovirus system. […] After thawing the cells were resuspended in lysing buffer (50 mM HEPES pH 7.5, 10 mM MgCl2, 1 mM DTT, 5 μg/ml leupeptin, 5 μg/ml aprotinin, 100 μM NaF, 100 μM PMSF, 10 mM β-glycerolphosphate, 100 μM Na3VO4, 30 mM nitrophenylphosphate, 17.5 ml of lysing buffer per 10^8 cells) and incubated on ice for 30 min. […] Cyclin D1-CDK4 was purified by means of a GST-tag on cyclin D1 and then using glutathione beads (total protein about 0.2 mg/ml). All the kinase tests were carried out in 96-well microtitre plates (Greiner PS) in a final volume of 60 μl. […] As a negative control the kinase reaction was carried out in the absence of the substrate histone H1. As a positive control the kinase reaction was carried out in the absence of a test substance. As an internal control 30 μM and 300 μM (final concentration) of the kinase inhibitor olomoucin (Alexis) were used. […] The kinase reaction is started by the addition of 10 μl of ATP mix (0.045 mM ATP, 0.5 μCi ^33P-ATP in kinase buffer) and incubated for 30 min at 30° C. and 600 rpm in a shaking incubator. After incubation the plates were placed on ice and the proteins were precipitated by the addition of 125 μl of ice-cold 5% trichloroacetic acid. After 15 min on ice the precipitates were transferred onto Packard Unifilter 96 GF/B plates with the Packard Harvester System, and collected by vacuum filtration. The precipitates were washed 4 times with dist. H2O at ambient temperature. The filter plates were then dried at 60° C. and 50 μl of scintillation liquid were added to each well (Ultima Gold, Packard). The plate was sealed up with Sealing Tape and after 1 h measured in a scintillation measuring apparatus (Micro Beta made by Wallac).
For the compound `CC(C)NC(=O)NCCCNc1nc(Nc2ccc3cnn(C)c3c2)ncc1C(F)(F)F` [Example 7(036), 1-isopropyl-3-{3-[2-(1-methyl-1H-indazol-6-ylamino)-5-trifluoromethyl-pyrimidin-4-ylamino]-propyl}-urea], the IC50 was less than 100 nM.

Turning to `O=C1CCCN1CCCNc1nc(Nc2ccc3ccccc3c2)ncc1C(F)(F)F` [Example 1(003), 2-(2-naphthylamino)-4-(3-(2-oxo-pyrrolidin-1-yl)-propyl-1-amino)-5-trifluoromethyl-pyrimidine], the IC50 was less than 100 nM.

For `NCCCNc1nc(Nc2ccc(C(N)=O)cc2)ncc1C(F)(F)F` [Example 1(693), 4-[4-(3-aminopropylamino)-5-trifluoromethyl-pyrimidin-2-ylamino]benzamide], the IC50 was less than 100 nM.

For `NC1CCC(Nc2nc(Nc3ccc(Cl)c(Cl)c3)ncc2C(F)(F)F)CC1` (stereo not drawn) [Example 1(109), 2-(3,4-dichlorophenylamino)-4-(4-amino-cyclohexylamino)-5-trifluoromethyl-pyrimidine], the IC50 was less than 100 nM.

For `CC(=O)NCCNc1nc(Nc2ccc(CC(=O)N(C)C)cc2)ncc1C(F)(F)F` [Example 2(053), 2-{4-[4-(2-Acetylamino-ethylamino)-5-trifluoromethyl-pyrimidin-2-ylamino]-phenyl}-N,N-dimethyl-acetamide], the IC50 is less than 100 nM.

For `CC(=O)NCCNc1nc(Nc2ccc3cnn(C)c3c2)ncc1C(F)(F)F` [Example 1(654), N-{2-[2-(1-methyl-1H-indazol-6-ylamino)-5-trifluoromethyl-pyrimidin-4-ylamino]-ethyl}-acetamide], the IC50 was less than 100 nM.

Take `O=[N+]([O-])c1cnc(Nc2ccc(Cl)cc2)nc1N1CCCC(CCCCN2CCCC2)C1` (stereo not drawn) [Example 1(028), 2-(4-chloro-phenylamino)-4-(3-(4-(pyrrolidin-1-yl)butyl)-piperidin-1-yl)-5-nitro-pyrimidine]: the IC50 was less than 100 nM.

Consider `Nc1c(Cl)cc(Nc2ncc([N+](=O)[O-])c(N3CCc4[nH]cnc4C3)n2)cc1Cl` [Example 1(113), 2-(4-amino-3,5-dichlorophenylamino)-4-(1,4,6,7-tetrahydro-imidazo[4,5-c]pyridin-5-yl)-5-nitro-pyrimidine], for which the IC50 was less than 100 nM.

As to `CCN(CC)C(=O)NCCCNc1nc(Nc2ccc3cnn(C)c3c2)ncc1C(F)(F)F` [Example 7(032), 1,1-diethyl-3-{3-[2-(1-methyl-1H-indazol-6-ylamino)-5-trifluoromethyl-pyrimidin-4-ylamino]-propyl}-urea], the IC50 was less than 100 nM.

Regarding `O=[N+]([O-])c1cccc(Nc2ncc([N+](=O)[O-])c(N3CCCC(CO)C3)n2)c1` (stereo not drawn) [Example 1(050), 2-(3-nitro-phenylamino)-4-(3-hydroxymethyl-piperidin-1-yl)-5-nitro-pyrimidine], the IC50 is less than 100 nM.

As to `Cc1cnc(Nc2ccc3cn[nH]c3c2)nc1NCCCN1CCCC1=O` [Example 2(075), 1-{3-[2-(1H-indazol-6-ylamino)-5-methyl-pyrimidin-4-ylamino]-propyl}-pyrrolidin-2-one], the IC50 was less than 100 nM.

For the compound `FC(F)(F)c1cnc(Nc2cc(Cl)cc(Cl)c2)nc1N1CCc2[nH]cnc2C1` [Example 1(014), 2-(3,5-dichlorophenylamino)-4-(1,4,6,7-tetrahydro-imidazo[4,5-c]pyridin-5-yl)-5-trifluoromethyl-pyrimidine], the IC50 was less than 100 nM.

Take `CC(=O)NCCNc1nc(Nc2ccc(S(=O)(=O)Nc3ccccn3)cc2)ncc1C(F)(F)F` [Example 2(059), N-(2-{2-[4-(Pyridin-2-ylsulphamoyl)-phenylamino]-5-trifluoromethyl-pyrimidin-4-ylamino}-ethyl)-acetamide]: the IC50 is less than 100 nM.

For the compound `NCCCNc1nc(Nc2cccc(Br)c2)ncc1C(F)(F)F` [Example 1(024), 2-(3-bromo-phenylamino)-4-(3-amino-propylamino)-5-trifluoromethyl-pyrimidine], the IC50 is less than 100 nM.

As for `NC(=O)c1ccc(Nc2ncc(Br)c(NCCCN3CCCC3=O)n2)cc1` [Example 1(662)], the IC50 was less than 100 nM.

As for `CC(=O)NCCNc1nc(Nc2ccc(S(=O)(=O)C(C)C)cc2)ncc1C(F)(F)F` [Example 1(692), N-(2-{2-[4-(propane-2-sulphonyl)-phenylamino]-5-trifluoromethyl-pyrimidin-4-ylamino}-ethyl)-acetamide], the IC50 was less than 100 nM.

Consider `NCCNc1nc(Nc2ccc(Cl)c(Cl)c2)ncc1C(F)(F)F` [Example 1(080), 2-(3,4-dichloro-phenylamino)-4-(2-amino-1-ethylamino)-5-trifluoromethyl-pyrimidine], for which the IC50 was less than 100 nM.

Take `CC(=O)NCCNc1nc(Nc2ccc(NS(=O)(=O)c3ccccc3)cc2)ncc1C(F)(F)F` [Example 10(016), N-(2-[2-(4-phenylsulphonylamido-phenylamino)-5-trifluoromethyl-pyrimidin-4-ylamino]-ethyl)-acetamide]: the IC50 was less than 100 nM.

Regarding `FC(F)(F)c1cnc(Nc2ccc(Cl)cc2)nc1N1CCc2[nH]cnc2C1` [Example 1(004), 2-(4-chlorophenylamino)-4-(1,4,6,7-tetrahydro-imidazo[4,5-c]pyridin-5-yl)-5-trifluoromethyl-pyrimidine], the IC50 is less than 100 nM.

In the case of `CC(=O)NCCNc1nc(Nc2cccc(NS(=O)(=O)c3ccccc3)c2)ncc1C(F)(F)F` [Example 10(015), N-(2-[2-(3-phenylsulphonylamido-phenylamino)-5-trifluoromethyl-pyrimidin-4-ylamino]-ethyl)-acetamide], the IC50 is less than 100 nM.

With `NC1CCC(Nc2nc(Nc3ccc(C(=O)O)cc3)ncc2C(F)(F)F)CC1` (stereo not drawn) [Example 1(111), 2-(4-carboxyphenylamino)-4-(4-amino-cyclohexylamino)-5-trifluoromethyl-pyrimidine], the IC50 is less than 100 nM.

For `CC(=O)NCCNc1nc(Nc2ccc(S(=O)(=O)N(C)C)cc2)ncc1Br` [Example 1(652), N-{2-[5-Bromo-2-(4-dimethylsulphamoyl-phenylamino)-pyrimidin-4-ylamino]-ethyl}-acetamide], the IC50 is less than 100 nM.

Consider `NCC1CCN(c2nc(Nc3ccc(Br)cc3)ncc2C(F)(F)F)CC1` [Example 1(043)], for which the IC50 is less than 100 nM.

Consider `O=C(O)CCc1ccc(Nc2ncc(C(F)(F)F)c(N3CCc4[nH]cnc4C3)n2)cc1` [Example 1(023), 2-(4-(2-carboxy-1-ethyl-)phenylamino)-4-(1,4,6,7-tetrahydro-imidazo[4,5-c]pyridin-5-yl)-5-trifluoromethyl-pyrimidine], for which the IC50 was less than 100 nM.

On to `NCCCCCNc1nc(Nc2cccc(Cl)c2)ncc1C(F)(F)F` [Example 1(077), 2-(3-chloro-phenylamino)-4-(5-amino-1-pentylamino)-5-trifluoromethyl-pyrimidine], for which the IC50 was less than 100 nM.

For `CC(=O)NCCNc1nc(Nc2ccc(C(=O)O)cc2)ncc1C(F)(F)F` [Example 9(001), 4-[4-(2-acetylamino-ethylamino)-5-trifluoromethyl-pyrimidin-2-ylamino]-benzoic acid], the IC50 was less than 100 nM.

For the compound `CC(=O)NCCNc1nc(Nc2ccc(Cl)c(Cl)c2)ncc1Br` [Example 2(002), 2-(3,4-dichlorophenylamino)-4-(2-acetylamino-ethylamino)-5-bromo-pyrimidine-hydrochloride], the IC50 was less than 100 nM.

`COC(=O)NCCCNc1nc(Nc2ccc3cnn(C)c3c2)ncc1C(F)(F)F` [Example 7(022)]: the IC50 is less than 100 nM.

With `CC(=O)NCCNc1nc(Nc2ccc(S(=O)(=O)N3CCCNCC3)cc2)ncc1C(F)(F)F` [Example 2(060), N-(2-{2-[4-(Perhydro-1,4-diazepin-1-sulphonyl)-phenylamino]-5-trifluoromethyl-pyrimidin-4-ylamino}-ethyl)-acetamide], the IC50 is less than 100 nM.

On to `COCC(=O)NCCCNc1nc(Nc2ccc(C(N)=O)cc2)ncc1C(F)(F)F` [Example 7(028), 4-[4-(3-(2-methoxy-acetamino)-propylamino)-5-trifluoromethyl-pyrimidin-2-ylamino]-benzamide], for which the IC50 was less than 100 nM.

With `NCC1CCC(CNc2nc(Nc3ccc(Cl)cc3)ncc2C(F)(F)F)CC1` (stereo not drawn) [Example 1(107), 2-(4-chloro-phenylamino)-4-(4-aminomethyl-cyclohexylmethylamino)-5-trifluoromethyl-pyrimidine], the IC50 is less than 100 nM.

In the case of `O=[N+]([O-])c1cnc(Nc2ccc(Cl)cc2)nc1N1CCc2[nH]cnc2C1` [Example 1(010), 2-(4-chlorophenylamino)-4-(1,4,6,7-tetrahydro-imidazo[4,5-c]pyridin-5-yl)-5-nitro-pyrimidine], the IC50 was less than 100 nM.

For `CN1CCC2(CCN(c3nc(Nc4ccc(Cl)c(Cl)c4)ncc3C(F)(F)F)C2)C1` (stereo not drawn) [Example 1(117), 2-(3,4-dichlorophenylamino)-4-(7-methyl-2,7-diaza-spiro[4.4]non-2-yl)-5-trifluoromethyl-pyrimidine], the IC50 was less than 100 nM.
